Measurements taken from patent US3997506A (priority 1974, dated 1976).
Values joined by “and” are separate entries in the source; they are usually repeats but may differ in a detail not shown here. Identical values can stand only once. Like-named read-outs stand apart in the source and are kept apart here.

What was measured:
leucocytes from rats [1] = type: in vivo, Sprague Dawley SIV 50 he-rats; conditions: 2 mg/kg oral
[2] = test system: phagocytosis by peritoneal macrophages of mice; type: cell-based; conditions: for % phagocytosis with respect to controls (= 100%): 80 min
[3] = test system: Sprague Dawley SIV 50 rat; type: in vivo, male and female Sprague Dawley SIV 50 rat; conditions: for Death rate: 10 days
Description: The high toxicity of the new derivative of colchicine (N-desacetyl-N-adamantoyl-thiocolchicine) has been investigated through the oral way with the male and female Sprague Dawley SIV 50 rat having an average weight of 100 g.
Two experiments have been carried out. In the first one, only the high toxicity of the derivative has been studied; in the second one, the high toxicity of the derivative has been compared with that of colchicine.
The derivative and colchicine have been administered in suspension in propylene glycol through an oesophageal tube at the rate of 2 ml per rat for the first experiment and of 1 ml for the second one.
The animals have been observed for 10 days.

human leucocytes [4] = conditions: 0.01 μg/ml to 10 μg/ml; up to 30 hours; no PHA
leucocytes from rats [5] = conditions: 6 hours after administration, 2 mg/kg oral
leucocytes from rats [6] = conditions: individual rat, 2 mg/kg oral
[7] = test system: oedema produced by crystals of urate in the hind paw of the rat; type: in vivo, Sprague Dawely female rats; conditions: for % of inhibition of edema / Difference in weight between left and right leg (Average ± standard deviation of mean term): three subcutaneous injections, 6 h after urate
in vitro = type: cell-based, human; conditions: human, leucocytes, read-out: % of dead cells
Method: (§1) The cytotoxicity has been investigated on human leucocytes by means of the viability test with Trypan blue.
(§2) a. In a first experimentation cultures of leucocytes of a voluntary […] were prepared and caused to undergo incubation with phytohemagglutinin (PHA) and with different concentrations of colchicine or of its derivative (C1 = 2.5 μg/ml of culture, C3 = 10 μg/ml, C5 = 30 μg/ml, C6 = 50 μg/ml). Leucocytes only containing PHA served as controls.
(§3) After 3, 42, 68 and 72 hours of incubation a sample of each culture was contacted by a drop of Trypan blue and laid on a slide of a microscope. Then took place the counting of the dead cells (those with assumed an […] colour) and of all the cells present on the slide in order to obtain the ratio of the number of dead cells to the total number of cells. The results expressed as a rate in per cent are shown in the accompanying table 8.
(§4) b. After the experimentation which has just been described, the study of cytotoxicity has been continued with two other samples of human leucocytes still by means of the viability test with Trypan blue.
(§5) C1 = 2.5 μg/ml of culture
(§6) C6 = 50 μg/ml of culture;
(§7) and for the carboxy-1-adamantane fraction to:
(§8) C3 = 4.5 μg/ml of culture
(§9) C6 = 22.5 μg/ml of culture.
(§10) Leucocytes only containing phytohemagglutinin and others containing phytohemagglutinin and 50 μl of methanol served as controls.
(§11) The percentage of dead cells was determined after different numbers of hours of incubation.

human leucocytes [8] = test: in vitro; type: cell-based; conditions: for % of dead cells: C6 = 50 μg/ml
Method: as §1, §2, §3, §4, §5, §6, §7, §8, §9, §10, §11

[9] = 6 hours after administration, individual rat, 2 mg/kg
[10] = before administration, individual rat, 2 mg/kg
[11] = first experimentation, C1 = 2.5 μg/ml
[12] = first experimentation, C3 = 10 μg/ml
[13] = first experimentation, C5 = 30 μg/ml

## COc1cc2c(c(OC)c1OC)-c1ccc(SC)c(=O)cc1C(NC(=O)C13CC4CC(CC(C4)C1)C3)CC2 (single isomer, unassigned) [Derivative, N-desacetyl-N-adamantoyl-thiocolchicine]
Leucocytes from rats [1]; 6 hours after administration, group mean
  embodied radioactivity, mean: 10,664±2,087 cpm
Leucocytes from rats [1]; 6 hours after administration, group mean, factor and spread printed on following lines
  cpm / number of lymphocytes, mean: 4.71 × 10^-^2 cpm/number of lymphoc
Leucocytes from rats [1]; [9]
  Number of lymphocytes/culture: 172,500 lymphocytes/culture and 244,760 lymphocytes/culture and 261,900 lymphocytes/culture
  embodied radioactivity: 8,466 cpm and 8,690 cpm and 14,836 cpm
Leucocytes from rats [1]; 6 hours after administration, individual rat, factor × 10^-^2, 2 mg/kg
  cpm / number of lymphocytes (immunity response): 4.91 × 10^-^2 cpm/number of lymphoc and 3.55 × 10^-^2 cpm/number of lymphoc and 5.66 × 10^-^2 cpm/number of lymphoc
Leucocytes from rats [1]; before administration, group mean
  embodied radioactivity, mean: 12,227±2,228 cpm
Leucocytes from rats [1]; [10]
  Number of lymphocytes/culture: 132,480 lymphocytes/culture and 147,000 lymphocytes/culture and 271,460 lymphocytes/culture and 257,060 lymphocytes/culture
  embodied radioactivity: 7,384 cpm and 10,195 cpm and 7,709 cpm and 13,619 cpm
[2]; 0.004 μg
  inhibition of phagocytosis: 10%
[2]; 0.004 μg, Experimentation III
  % phagocytosis with respect to controls (= 100%): 93.8%
[2]; 0.004 μg, Experimentation IV
  % phagocytosis with respect to controls (= 100%): 85.8%
[2]; 0.04 μg, Experimentation III
  % phagocytosis with respect to controls (= 100%): 84.5%
[2]; 0.04 μg, Experimentation IV
  % phagocytosis with respect to controls (= 100%): 85.9%
[2]; 0.04 μg, Experimentation V
  % phagocytosis with respect to controls (= 100%): 89.9%
[2]; 0.4 μg, Experimentation III
  % phagocytosis with respect to controls (= 100%): 72.8%
[2]; 0.4 μg, Experimentation IV
  % phagocytosis with respect to controls (= 100%): 77.6%
[2]; 0.4 μg, Experimentation V
  % phagocytosis with respect to controls (= 100%): 76.2%
[2]; 4 μg
  inhibition of phagocytosis: 65%
[2]; 4 μg, Experimentation II
  % phagocytosis with respect to controls (= 100%): 22.5%
[2]; 4 μg, Experimentation III
  % phagocytosis with respect to controls (= 100%): 33.1%
[2]; 4 μg, Experimentation IV
  % phagocytosis with respect to controls (= 100%): 42.5%
[2]; 4 μg, Experimentation V
  % phagocytosis with respect to controls (= 100%): 39.3%
[2]; 5 μg, Experimentation II
  % phagocytosis with respect to controls (= 100%): 25.9%
[2]; 10 μg, Experimentation II
  % phagocytosis with respect to controls (= 100%): 25.5%
[2]; 12.5 μg, Experimentation I
  % phagocytosis with respect to controls (= 100%): 46.2%
[2]; 20 μg, Experimentation II
  % phagocytosis with respect to controls (= 100%): 31.3%
[2]; 30 μg, Experimentation II
  % phagocytosis with respect to controls (= 100%): 31.1%
[2]; 40 μg, Experimentation II
  % phagocytosis with respect to controls (= 100%): 31.0%
[2]; 40 μg, Experimentation III
  % phagocytosis with respect to controls (= 100%): 43.7%
[2]; 40 μg, Experimentation IV
  % phagocytosis with respect to controls (= 100%): 48.4%
[2]; compared with colchicine
  inhibition of phagocytosis of the red blood-corpuscles by the macrophages (in words): will inhibit phagocytosis of the red blood-corpuscles by the macrophages nearly as colchicine would do
[3]; 3 g/kg
  deaths (in words): no death has been detected
[3]; first experiment, 2.000 mg/kg oral
  Death rate: 0/10
[3]; first experiment, 3.000 mg/kg oral
  Death rate: 0/10
[3]; second experiment, 100 mg/kg oral
  Death rate: 0/6
[3]; second experiment, 500 mg/kg oral
  Death rate: 0/6
[3]; second experiment, 1,000 mg/kg oral
  Death rate: 0/6
[3]; second experiment, 2,000 mg/kg oral
  Death rate: 0/6
[3]; second experiment, 3,000 mg/kg oral
  Death rate: 0/6
Human leucocytes [4]
  cytotoxicity (in words): no cytotoxicity is detectable
Leucocytes from rats [5]
  cytotoxic effect (in words): no cytotoxic effect has been noticed
Leucocytes from rats [5]; individual rat, 2 mg/kg, 360 min
  % of dead cells: 2% and 1% and 0%
Leucocytes from rats [6]; 6 hours after administration
  Basophils: 0
  Eosinophils: 0
Leucocytes from rats [6]; 6 hours after administration, 2 mg/kg
  Lymphocytes: 94 and 82 and 86
Leucocytes from rats [6]; before administration
  Basophils: 0
  Eosinophils: 0
Leucocytes from rats [6]; before administration, 2 mg/kg
  Lymphocytes: 84 and 90 and 82
  Monocytes: 2 and 1
  Neutrophils with segmented nucleus: 12 and 8
[7]; 2 mg/kg
  % of inhibition of edema: 10%
  Difference in weight between left and right leg (Average ± standard deviation of mean term): 0.264 ± 0.031 g
[7]; 6 mg/kg
  % of inhibition of edema: 50%
  Difference in weight between left and right leg (Average ± standard deviation of mean term): 0.145 ± 0.019 g
[7]; colchicine 2 mg/kg, derivative 6 mg/kg
  protection against the oedema produced by crystals of urate (in words): significant protection
In vitro; Culture I, C3 = 10 μg/ml
  cytotoxicity at 4 h: 15%
  cytotoxicity at 22 h: 12%
  cytotoxicity at 46 h: 42%
  cytotoxicity at 76 h: 40%
In vitro; Culture I, C6 = 50 μg/ml
  cytotoxicity at 4 h: 17%
  cytotoxicity at 22 h: 22%
  cytotoxicity at 46 h: 53%
  cytotoxicity at 76 h: 62%
In vitro; Culture II, C1 = 2.5 μg/ml
  cytotoxicity at 23 h: 8%
  cytotoxicity at 46 h: 4%
  cytotoxicity at 72 h: 26%
In vitro; Culture II, C3 = 10 μg/ml
  cytotoxicity at 23 h: 11%
  cytotoxicity at 46 h: 13%
  cytotoxicity at 72 h: 41%
In vitro; Culture II, C5 = 30 μg/ml
  cytotoxicity at 23 h: 16%
  cytotoxicity at 46 h: 22%
  cytotoxicity at 72 h: 43%
In vitro; Culture II, C6 = 50 μg/ml, *x/x = 2 different tubes
  cytotoxicity at 72 h: 61%
In vitro; [11]
  cytotoxicity at 3 h: 0%
  cytotoxicity at 42 h: 5%
  cytotoxicity at 68 h: 5%
  cytotoxicity at 72 h: 9%
In vitro; [12]
  cytotoxicity at 3 h: 0%
  cytotoxicity at 42 h: 7%
  cytotoxicity at 68 h: 9%
  cytotoxicity at 72 h: 12%
In vitro; [13]
  cytotoxicity at 3 h: 0%
  cytotoxicity at 42 h: 23%
  cytotoxicity at 68 h: 20%
  cytotoxicity at 72 h: 35%
In vitro; first experimentation, C6 = 50 μg/ml
  cytotoxicity at 42 h: 32%
Human leucocytes [8]; Cultures I and II
  cytotoxicity, cultures I and II (in words): does not seem to be very different from that of colchicine or methanol after 23 hours of incubation; however for longer periods of time and more especially with concentrations C5 and C6 it becomes more substantial
Human leucocytes [8]; first experimentation, 68 hours
  % of dead cells: very few
Human leucocytes [8]; first experimentation, 72 hours
  % of dead cells: very few
Human leucocytes [8]; [11]
  cytotoxicity, colchicine versus derivative (in words): substantially the same
Human leucocytes [8]; first experimentation, higher concentrations
  cytotoxicity compared with colchicine (in words): more cytotoxic than colchicine itself
